This experiment concerns the target hTRPA1 (Homo sapiens, UniProt O75762). The experiment in a line: Dose response calcium flux (FLIPR) assay, ChanTest hTRPA1-CHO stably transfected cell line, cinnamaldehyde agonist. Format: cell-based. The settings on record: CHO-K1 Tet-On hTRPA1 cells, 100 uM cinnamaldehyde agonist, 30 min preincubation. The procedure: Dose Response Assay:ChanTest hTRPA1-CHO Stably Transfected Cell Line
CHO-K1 Tet-On_HOMSA_TRPA1_Clone_20
Growth Media for CHO-K1 Tet-On_HOMSA_TRPA1_Clone_20 • Ham's F-12 with 10% tetracycline-free FBS • 1× penicillin-streptomycin • 1× glutamax • 0.01 mg/ml Blasticidin • 0.40 mg/ml Zeocin • The cell line doubling rate was ˜15 h. […] Experiments were run at 24 h post induction.
Plating Conditions CHOK1/TRPA1 Cells: • Harvested cells with 0.025% trypsin/EDTA. • Resuspended cells in growth media without selection antibiotics. • Measured cell density and diluted to 2.4×10^5 cells/ml in media containing 1 ug/ml Doxycycline Plate 25 ul/well into 384 well black/clear tissue culture-treated plates. • Incubated overnight at 37° C.
Replacement Buffer: Hank's Balanced Salt Solution, 20 mM HEPES along with 0.005% BSA and 2× Probenecid
Dye Loading Buffer: Cal-3 NW Calcium dye was prepared by dissolving the contents of one vial with […] Hank's Balanced Salt Solution containing 20 mM HEPES.
AP-18, stock 10 mM, prepare 3.5× compound dilution in a Compound Buffer (HBSS/20 mM HEPES/0.005% BSA)—final concentration 10 uM.
Preparation of Cinnamaldehyde (Agonist Addition): • FW=132.16 • Specific gravity=1.046 gm/cc • 1.32 gm/1.046 gm/cc=1.26 ml of stock • Add 1.74 ml DMSO=3.3 M stock • Working solution 4.5× (final 100 uM in Compound Buffer: HBSS/20 mM HEPES/0.005% BSA)
Compounds dilutions were prepared from 5 or 10 mM stock (100% DMSO): • Adjustments of volumes and concentrations were made at time of titration to reflect desired final assay concentrations. • Compounds were tested at either 20 μM three folds dilution 11 steps out or 30 μM two folds dilution 11 steps out. • 3 μl of diluted compound were transferred into Weidmann 384-well plate in duplicates side-by-side. • Compound plates were resuspended with 100 ul of HBSS/20 mM HEPES/0.005% BSA buffer (Compound Buffer): • column 1A-H: buffer/DMSO (bk) • column 2A-H: AP-18 (control antagonist for CHOK1 TRPA1 cells) • column 1I-P: ATP (control for CHOK1 teton cells) • column 2I-P: 2APB (control antagonist for CHOK1/TRPM8 cells).
Growth media was removed from the cell plates (20 ul) and 20 μl of the Replacement Buffer was added followed by addition of 25 μl of diluted dye. All three steps were performed using a Plate Washer BioTek 407. The plates were then incubated for 30′ at RT.
After incubation, both the cell and compound plates were brought to the FLIPR and 20 μl of the diluted compounds/antagonist/bk were transferred to the cell plates by the FLIPR. Plates were then incubated for 30′ at room temperature. After 30′ incubation, plates were returned to the FLIPR and 20 μl of 4.5× Cinnamaldehyde was added to the cell plates. During the compound addition as well as agonist addition, fluorescence readings were taken simultaneously from all 384 wells of the cell plate every 1.5 seconds. Five readings were taken to establish a stable baseline, then 20 μl of sample was rapidly (30 ul/sec) and simultaneously added to each well of the cell plate. The fluorescence was continuously monitored before, during and after sample/agonist addition for a total elapsed time of 100 seconds (compound addition) and 120 seconds (agonist addition). Responses (increase in peak fluorescence) in each well following agonist addition was determined. The initial fluorescence reading from each well, prior to ligand stimulation, was used a zero baseline value for the data from that well.
In general terms: Calcium assays in cells follow changes in intracellular calcium, usually with a dye or a luminescent sensor.

Counter-ions that a name gives are not always drawn.

hTRPA1, sequence (O75762 whole entry): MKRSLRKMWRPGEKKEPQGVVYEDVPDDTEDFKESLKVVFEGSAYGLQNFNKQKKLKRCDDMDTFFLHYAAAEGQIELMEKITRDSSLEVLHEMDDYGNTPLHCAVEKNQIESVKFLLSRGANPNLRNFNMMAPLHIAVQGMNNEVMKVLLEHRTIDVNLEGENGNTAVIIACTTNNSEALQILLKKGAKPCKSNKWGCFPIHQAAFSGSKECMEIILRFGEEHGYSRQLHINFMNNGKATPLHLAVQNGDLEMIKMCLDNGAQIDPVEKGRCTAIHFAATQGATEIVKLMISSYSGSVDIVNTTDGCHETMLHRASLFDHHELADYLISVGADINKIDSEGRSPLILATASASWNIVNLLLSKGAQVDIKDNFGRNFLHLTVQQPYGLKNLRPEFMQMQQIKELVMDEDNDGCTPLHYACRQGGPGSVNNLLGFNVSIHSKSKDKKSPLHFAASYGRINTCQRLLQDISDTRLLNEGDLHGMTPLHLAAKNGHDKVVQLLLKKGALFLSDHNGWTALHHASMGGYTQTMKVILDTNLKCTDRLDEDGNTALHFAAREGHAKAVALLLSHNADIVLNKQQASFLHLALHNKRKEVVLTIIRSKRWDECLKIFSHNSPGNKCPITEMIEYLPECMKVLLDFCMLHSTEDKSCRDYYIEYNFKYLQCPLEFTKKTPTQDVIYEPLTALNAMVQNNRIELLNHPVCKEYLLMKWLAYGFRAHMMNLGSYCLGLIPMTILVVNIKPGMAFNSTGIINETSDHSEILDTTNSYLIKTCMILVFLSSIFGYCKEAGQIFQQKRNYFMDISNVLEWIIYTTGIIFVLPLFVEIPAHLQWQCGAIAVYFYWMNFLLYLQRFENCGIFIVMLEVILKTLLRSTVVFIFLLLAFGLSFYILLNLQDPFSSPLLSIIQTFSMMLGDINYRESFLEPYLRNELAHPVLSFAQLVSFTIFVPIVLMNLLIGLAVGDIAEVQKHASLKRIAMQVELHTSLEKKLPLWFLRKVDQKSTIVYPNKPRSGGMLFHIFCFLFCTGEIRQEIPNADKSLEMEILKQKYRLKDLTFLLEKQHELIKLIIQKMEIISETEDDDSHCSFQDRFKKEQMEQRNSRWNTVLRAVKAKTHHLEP

Consider `O=C(Nc1ccc(Cl)c(F)c1)O[C@@H](CN1CCO[C@H](c2ccc(C(F)(F)F)cc2)C1)C(F)(F)F` [Example 31, (4-Chloro-3-fluorophenyl)carbamic acid (S)-2,2,2-trifluoro-1-[(R)-2-(4-trifluoromethylphenyl)-morpholin-4-ylmethyl]-ethyl ester hydrochloride], for which the IC50 is 34.6 nM.

As to `O=C(Nc1ccc(Cl)cc1)O[C@@H](CN1CCO[C@H](Cc2ccccc2)C1)C(F)(F)F` [Example 9, (4-Chlorophenyl)-carbamic acid (S)-1-((R)-2-benzyl-morpholin-4-ylmethyl)-2,2,2-trifluoroethyl ester hydrochloride], the IC50 came out at 121 nM.

Turning to `O=C(Nc1ccc(Cl)cc1)O[C@@H](CN1CCOC(c2cccc(Cl)c2)C1)C(F)(F)F` (stereo partly drawn) [Example 43, (4-Chlorophenyl)-carbamic acid (S)-2,2,2-trifluoro-1-[2-(3-chlorophenyl)-morpholin-4-ylmethyl]-ethyl ester hydrochloride], the IC50 stood at 17.8 nM.

Take `O=C(Nc1ccc(Cl)c(F)c1)O[C@@H](CN1CCO[C@H](c2cc(Cl)cc(Cl)c2)C1)C(F)(F)F` [Example 46, (4-Chloro-3-fluorophenyl)carbamic acid (S)-1-[(R)-2-(3,5-dichlorophenyl)-morpholin-4-ylmethyl]-2,2,2-trifluoroethyl ester hydrochloride]: the IC50 was determined as 16.9 nM.

For the molecule `O=C(Nc1ccc(Cl)c(F)c1)O[C@@H](CN1CCO[C@H](c2cccc(C(F)(F)F)c2)C1)C(F)(F)F` [Example 13, (4-Chloro-3-fluorophenyl)-carbamic acid (S)-2,2,2-trifluoro-1-[(R)-2-(3-trifluoromethylphenyl)-morpholin-4-ylmethyl]-ethyl ester hydrochloride], the IC50 came out at 6.35 nM.

The IC50 is the concentration needed to halve the response being measured.

Source of the values: patent publication US9353096B2, “Substituted phenylcarbamate compounds” (Hoffmann-La Roche Inc., priority 2012, dated 2016).
